Earlier results as cited in patent publication US20210316006A1, “PYRROLOBENZODIAZEPINE CONJUGATES” (priority 2018, published 2021).

Tests used:
[1] = quoted from Mantaj et al. 2016
[2] = in vitro; quoted from Gregson et al. 1999

## COc1cc2c(cc1OCCCOc1cc3c(cc1OC)C(=O)N1CCC[C@H]1C=N3)N=C[C@@H]1CCCN1C2=O [DSB-120]
[1]
  activity in vivo: poor activity in vivo

## C=C1C[C@H]2C=Nc3cc(OCCCOc4cc5c(cc4OC)C(=O)N4CC(=C)C[C@H]4C=N5)c(OC)cc3C(=O)N2C1 [SG2000]
[2]
  cytotoxic potency relative to DSB-120: ~9000 fold
